# Experimental data published in patent publication US20060069132A1, “Azolecarboxamide herbicides” (priority 2004, published 2006).
# Where two headings read alike, the source gives them in different places.
# What was measured:
# velvetleaf = assay: Test B pre-/postemergence herbicide test; assay type: in vivo, Abutilon theophrasti; conditions: for Plant response rating, Velvetleaf: preemergence; for pest or weed control at 125 g/ha / pest or weed control at 500 g/ha: Abutilon theophrasti, 336 h
# Method in brief: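 Test chemicals in a non-phytotoxic solvent mixture with surfactant were applied preemergence to seeded species and postemergence to plants 2-18 cm tall (1- to 4-leaf stage); rice and barnyardgrass were also tested in a flooded paddy at the 2-leaf stage. Visual rating versus controls after 13-15 days in greenhouse, scale 0 (no effect) to 100 (complete control).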
# bermudagrass = assay: Test C pre-/postemergence herbicide test; assay type: in vivo, Cynodon dactylon
# Method in brief: (§1)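 Visual injury scores run from 0 (no effect) to 100 (complete control), assessed relative to untreated controls 12 to 14 days after treatment in the greenhouse. Chemicals were formulated in a non-phytotoxic solvent mixture with surfactant and applied to soil after planting or to emerged plants at the 1- to 4-leaf stage.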
# cocklebur = assay: Test C pre-/postemergence herbicide test; assay type: in vivo, Xanthium strumarium
# Method in brief: as §1
# johnsongrass = assay: Test C pre-/postemergence herbicide test; assay type: in vivo, Sorghum halepense
# Method in brief: as §1
# eastern black nightshade = assay: Test C pre-/postemergence herbicide test; assay type: in vivo, Solanum ptycanthum
# Method in brief: as §1
# soybean = assay: Test C pre-/postemergence herbicide test; assay type: in vivo, Glycine max
# Method in brief: as §1
# [1] = 125 g ai/ha, visual rating, scale 0 (no effect) to 100 (complete control), postemergence
# [2] = 500 g ai/ha, visual rating, 0 = no effect, 100 = complete control
# [3] = postemergence, 500 g ai/ha, scale 0 to 100, 0 is no effect, 100 is complete control
# [4] = 62 g ai/ha, preemergence, scale 0 to 100, 0 no effect, 100 complete control
# [5] = 125 g ai/ha, scale 0 (no effect) to 100 (complete control), visual, 12 to 14 days, preemergence
# [6] = 250 g ai/ha, scale 0-100, preemergence
# [7] = Preemergence, 500 g ai/ha, scale 0 to 100, 0 no effect, 100 complete control
# [8] = 62 g ai/ha, preemergence, scale 0 to 100
# [9] = 500 g ai/ha, scale 0 to 100 (0 no effect, 100 complete control), visual, 12 to 14 days, preemergence
compound,measurement,setting,value
CCNC(=O)c1cccc(NC(=O)c2cc(C3(C)CC3)nn2CC)c1 [Compound 306],Velvetleaf plant response rating,velvetleaf; [1],40
same,"Plant response rating, Velvetleaf",velvetleaf; [2],100
same,Velvetleaf plant response rating,velvetleaf; [3],60
same,"Plant response rating, Bermudagrass",bermudagrass; [4],40
same,"Plant response rating, Bermudagrass",bermudagrass; [5],85
same,"Plant response rating, Bermudagrass",bermudagrass; [6],90
same,Bermudagrass plant response rating,bermudagrass; [7],100
same,"Plant response rating, Cocklebur",cocklebur; [8],0
same,"Plant response rating, Cocklebur",cocklebur; [5],0
same,"Plant response rating, Cocklebur",cocklebur; [6],0
same,Cocklebur plant response rating,cocklebur; [7],5
same,"Plant response rating, Johnsongrass",johnsongrass; [8],40
same,"Plant response rating, Johnsongrass",johnsongrass; [5],60
same,"Plant response rating, Johnsongrass",johnsongrass; [6],80
same,"Plant response rating, Nightshade",eastern black nightshade; [8],90
same,"Plant response rating, Nightshade",eastern black nightshade; [5],95
same,"Plant response rating, Nightshade",eastern black nightshade; [6],100
same,"Plant response rating, Nightshade",eastern black nightshade; [9],100
same,"Plant response rating, Soybean",soybean; [8],5
same,"Plant response rating, Soybean",soybean; [6],15
same,"Plant response rating, Soybean",soybean; [9],40
CCn1nc(C(C)(C)C)cc1C(=O)Nc1cc(C(=S)N(C)C)ccc1F [Compound 294],Velvetleaf plant response rating,velvetleaf; [1],40
same,"Plant response rating, Velvetleaf",velvetleaf; [2],100
same,Velvetleaf plant response rating,velvetleaf; [3],80
same,"Plant response rating, Bermudagrass",bermudagrass; [4],70
same,"Plant response rating, Bermudagrass",bermudagrass; [5],80
same,"Plant response rating, Bermudagrass",bermudagrass; [6],90
same,Bermudagrass plant response rating,bermudagrass; [7],90
same,"Plant response rating, Cocklebur",cocklebur; [8],30
same,"Plant response rating, Cocklebur",cocklebur; [5],40
same,"Plant response rating, Cocklebur",cocklebur; [6],80
same,Cocklebur plant response rating,cocklebur; [7],85
same,"Plant response rating, Johnsongrass",johnsongrass; [8],80
same,"Plant response rating, Johnsongrass",johnsongrass; [5],100
same,"Plant response rating, Johnsongrass",johnsongrass; [6],100
same,"Plant response rating, Johnsongrass",johnsongrass; [9],100
same,"Plant response rating, Nightshade",eastern black nightshade; [8],100
same,"Plant response rating, Nightshade",eastern black nightshade; [5],100
same,"Plant response rating, Nightshade",eastern black nightshade; [6],100
same,"Plant response rating, Nightshade",eastern black nightshade; [9],100
same,"Plant response rating, Soybean",soybean; [8],70
same,"Plant response rating, Soybean",soybean; [6],100
same,"Plant response rating, Soybean",soybean; [9],100
"CCc1nn(C(C)(C)C)cc1C(=O)Nc1cccc(C(=O)N(CC)CC)c1 [Compound 182, N-[3-[(diethylamino)carbonyl]phenyl]-1-(1,1-dimethylethyl)-3-ethyl-1H-pyrazole-4-carboxamide]",pest or weed control at 125 g/ha,"velvetleaf; post-emergence, postemergence, 125 g ai/ha, visual rating, scale 0 (no effect) to 100 (complete control), read-out: Velvetleaf plant response rating",0%
same,pest or weed control at 500 g/ha,"velvetleaf; post-emergence, postemergence, 500 g ai/ha, visual rating, scale 0 (no effect) to 100 (complete control), read-out: Velvetleaf plant response rating",60%
same,pest or weed control at 125 g/ha,"velvetleaf; pre-emergence, 125 g ai/ha, 0 = no effect, 100 = complete control, read-out: Velvetleaf plant response rating (0 to 100 scale)",0%
same,pest or weed control at 500 g/ha,"velvetleaf; pre-emergence, 500 g ai/ha, visual rating 0-100, 0 no effect, 100 complete control, read-out: Plant response rating, Velvetleaf",70%
same,pest or weed control at 62 g/ha,"bermudagrass; Cynodon dactylon, pre-emergence, 312 h, 62 g ai/ha, preemergence, scale 0 to 100, 0 no effect, 100 complete control, read-out: Plant response rating, Bermudagrass",20%
same,pest or weed control at 125 g/ha,"bermudagrass; Cynodon dactylon, pre-emergence, 312 h, 125 g ai/ha, scale 0 (no effect) to 100 (complete control), visual, 12 to 14 days, read-out: Plant response rating, Bermudagrass",75%
same,pest or weed control at 250 g/ha,"bermudagrass; Cynodon dactylon, pre-emergence, 312 h, 250 g ai/ha, scale 0 to 100 (0 no effect, 100 complete control), visual, 12 to 14 days, read-out: Plant response rating, Bermudagrass",90%
same,pest or weed control at 500 g/ha,"bermudagrass; Cynodon dactylon, pre-emergence, 312 h, Preemergence, 500 g ai/ha, scale 0 to 100, 0 no effect, 100 complete control, read-out: Bermudagrass plant response rating",95%
same,pest or weed control at 62 g/ha,"cocklebur; Xanthium strumarium, pre-emergence, 312 h, 62 g ai/ha, preemergence, scale 0 to 100, read-out: Plant response rating, Cocklebur",0%
same,pest or weed control at 125 g/ha,"cocklebur; Xanthium strumarium, pre-emergence, 312 h, 125 g ai/ha, scale 0 (no effect) to 100 (complete control), visual, 12 to 14 days, read-out: Plant response rating, Cocklebur",0%
same,pest or weed control at 250 g/ha,"cocklebur; Xanthium strumarium, pre-emergence, 312 h, 250 g ai/ha, scale 0 to 100 (0 no effect, 100 complete control), visual, 12 to 14 days, read-out: Plant response rating, Cocklebur",0%
same,pest or weed control at 500 g/ha,"cocklebur; Xanthium strumarium, pre-emergence, 312 h, Preemergence, 500 g ai/ha, scale 0 to 100, 0 no effect, 100 complete control, read-out: Cocklebur plant response rating",0%
same,Johnsongrass plant response rating,johnsongrass; [7],75
same,pest or weed control at 62 g/ha,"johnsongrass; Sorghum halepense, pre-emergence, 62 g ai/ha, preemergence, scale 0 to 100, read-out: Plant response rating, Johnsongrass",0%
same,pest or weed control at 125 g/ha,"johnsongrass; Sorghum halepense, pre-emergence, 125 g ai/ha, scale 0 (no effect) to 100 (complete control), visual, 12 to 14 days, read-out: Plant response rating, Johnsongrass",35%
same,Nightshade plant response rating,eastern black nightshade; [7],95
same,pest or weed control at 62 g/ha,"eastern black nightshade; pre-emergence, 62 g ai/ha, preemergence, scale 0 to 100, read-out: Plant response rating, Nightshade",70%
same,pest or weed control at 125 g/ha,"eastern black nightshade; pre-emergence, 125 g ai/ha, scale 0 (no effect) to 100 (complete control), visual, 12 to 14 days, read-out: Plant response rating, Nightshade",80%
same,plant injury at 62 g/ha,"soybean; Glycine max, pre-emergence, 62 g ai/ha, preemergence, scale 0 to 100, read-out: Plant response rating, Soybean",0%
same,plant injury at 125 g/ha,"soybean; Glycine max, pre-emergence, 125 g ai/ha, scale 0 (no effect) to 100 (complete control), visual, 12 to 14 days, read-out: Plant response rating, Soybean",0%
same,Soybean plant response rating,soybean; [7],15
